Article PMC12120022, “Discovery and chemical optimisation of a potent, Bi-cyclic antimicrobial inhibitor of Escherichia coli PBP3” (Communications Biology, 2025)
Where a SMILES comes first, the peptide text is derived from it.

Molecular target: T1, EcPBP3 (Escherichia coli, UniProt P0AD68)
T1 construct: For assays, selections and SPR a construct with residues 60–588 which has the N-terminal domain, but not the transmembrane helix, was used; made in house
Test: SPR binding assay on immobilised EcPBP3
Details: 37 °C, kinetic fitting; NB = no binding at 2500 nM (Tables S-4, S-5) or 5000 nM (Table 1); read-out: Kd (nM) by SPR (geomean)
Method: Surface plasmon resonance (SPR) assays were performed using EcPBP3 immobilized on CM5 sensor chips (GE Healthcare) via amine-coupling chemistry in assay buffer (10 mM HEPES pH 8.0, 200 mM NaCl, 0.05% (v/v) surfactant P20). The chip surface was activated by injection (10 μL min^–1) of 0.4 M EDC and 0.1 M NHS (in a 1:1 ratio) with a 7 min contact time. Protein was diluted to 25 μg mL^–1 in 10 mM MOPS (pH 7.0) and injected over the activated sensor chip surface to reach immobilization of 1500-2500 response units. Excess hydroxysuccinimidyl groups on the chip surface were deactivated by injection (10 μL min^–1) of 1 M ethanolamine hydrochloride pH 8.0 with a 7 min contact time. Reference flow cells were prepared as described, but without ligand (EcPBP3 protein).
Binding analysis runs were performed at 37 °C in running buffer (10 mM HEPES pH 8.0, 200 mM NaCl, 0.05% (w/v) Tween-20, 2% (v/v) DMSO). Test compounds (and control runs of buffer only) were injected in running buffer over the EcPBP3 chip and reference flow cell, at flow rate of 50 μL min^–1 for 150 s contact time and 2400 s dissociation time. Each injection was followed by a wash with 50% (v/v) DMSO. All compounds were tested in at least two independent biological replicates unless otherwise stated.
Raw sensorgrams data were solvent-corrected, reference-subtracted and blank-buffer-subtracted (double-referencing) before kinetic and affinity analysis to account for non-specific binding and injection artifacts. Equilibrium dissociation constant (Kd) values was determined using the Biacore™ Insight Evaluation Software (version 4.0.8 or version 5.0.17) using kinetic fitting. Kd values presented are the geometric mean of at least two biological replicates.

T1 sequence (P0AD68 60-588): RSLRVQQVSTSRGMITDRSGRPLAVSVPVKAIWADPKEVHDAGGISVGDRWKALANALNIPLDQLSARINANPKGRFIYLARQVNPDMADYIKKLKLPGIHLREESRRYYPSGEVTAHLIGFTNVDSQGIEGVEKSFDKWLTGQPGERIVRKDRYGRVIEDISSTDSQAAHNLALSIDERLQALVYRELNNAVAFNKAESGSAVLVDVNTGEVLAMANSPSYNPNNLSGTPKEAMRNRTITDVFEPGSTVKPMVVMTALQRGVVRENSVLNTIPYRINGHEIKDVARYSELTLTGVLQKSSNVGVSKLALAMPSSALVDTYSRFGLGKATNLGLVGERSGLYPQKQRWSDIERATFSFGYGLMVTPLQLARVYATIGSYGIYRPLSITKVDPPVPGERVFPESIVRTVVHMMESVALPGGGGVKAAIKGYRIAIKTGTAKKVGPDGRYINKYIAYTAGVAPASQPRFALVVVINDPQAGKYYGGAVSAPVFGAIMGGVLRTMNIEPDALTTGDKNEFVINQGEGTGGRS

Compound	Kd [nM]
CC(C)[C@@H]1NC(=O)[C@H](Cc2c[nH]c3ccccc23)NC(=O)[C@@H]2CCCN2C(=O)[C@@H]2CSCCC(=O)N3CN(CN(C3)C(=O)CCSC[C@H](NC(=O)[C@H](C)N)C(=O)N[C@@H](CO)C(=O)N[C@@H](Cc3c(F)c(F)c(F)c(F)c3F)C(=O)N3CCC[C@H]3C(=O)N[C@@H](CCCCN)C(=O)N2)C(=O)CCSC[C@@H](C(=O)N[C@@H](C)C(N)=O)NC(=O)CNC(=O)[C@H](CCC(=O)O)NC1=O [Peptide 54]	701
Cc1ccc(C[C@@H]2NC(=O)[C@H](CO)NC(=O)[C@@H](NC(=O)[C@H](C)N)CSCCC(=O)N3CN4CN(C3)C(=O)CCSC[C@H](NC(=O)[C@H](CCCCN)NC(=O)[C@@H]3CCCN3C2=O)C(=O)N2CCC[C@H]2C(=O)N[C@@H](Cc2c[nH]c3ccccc23)C(=O)N[C@@H](C(C)C)C(=O)N[C@@H](CCC(=O)O)C(=O)NCC(=O)N[C@H](C(=O)N[C@@H](C)C(N)=O)CSCCC4=O)cc1 [Peptide 58]	5.06
CC(C)[C@@H]1NC(=O)[C@H](Cc2c[nH]c3ccccc23)NC(=O)[C@@H]2CCCN2C(=O)[C@@H]2CSCCC(=O)N3CN(CN(C3)C(=O)CCSC[C@H](NC(=O)[C@H](C)N)C(=O)N[C@@H](CO)C(=O)N[C@@H](CCc3ccccc3)C(=O)N3CCC[C@H]3C(=O)N[C@@H](CCCCN)C(=O)N2)C(=O)CCSC[C@@H](C(=O)N[C@@H](C)C(N)=O)NC(=O)CNC(=O)[C@H](CCC(=O)O)NC1=O [Peptide 61]	232
CC(C)[C@@H]1NC(=O)[C@H](Cc2c[nH]c3cc(F)ccc23)NC(=O)[C@@H]2CCCN2C(=O)[C@@H]2CSCCC(=O)N3CN(CN(C3)C(=O)CCSC[C@H](NC(=O)[C@H](C)N)C(=O)N[C@@H](CO)C(=O)N[C@@H](Cc3ccccc3)C(=O)N3CCC[C@H]3C(=O)N[C@@H](CCCCN)C(=O)N2)C(=O)CCSC[C@@H](C(=O)N[C@@H](C)C(N)=O)NC(=O)CNC(=O)[C@H](CCC(=O)O)NC1=O [Peptide 66]	0.489
CC(C)[C@@H]1NC(=O)[C@H](Cc2c[nH]c3ccccc23)NC(=O)[C@@H]2CCCN2C(=O)[C@@H]2CSCCC(=O)N3CN(CN(C3)C(=O)CCSC[C@H](NC(=O)[C@H](C)N)C(=O)N[C@@H](CO)C(=O)N[C@@H](C)C(=O)N3CCC[C@H]3C(=O)N[C@@H](CCCCN)C(=O)N2)C(=O)CCSC[C@@H](C(=O)N[C@@H](C)C(N)=O)NC(=O)CNC(=O)[C@H](CCC(=O)O)NC1=O [Peptide 17]	> 2500
CC(C)[C@@H]1NC(=O)[C@H](Cc2cnc3ccccc3c2)NC(=O)[C@@H]2CCCN2C(=O)[C@@H]2CSCCC(=O)N3CN(CN(C3)C(=O)CCSC[C@H](NC(=O)[C@H](C)N)C(=O)N[C@@H](CO)C(=O)N[C@@H](Cc3ccccc3)C(=O)N3CCC[C@H]3C(=O)N[C@@H](CCCCN)C(=O)N2)C(=O)CCSC[C@@H](C(=O)N[C@@H](C)C(N)=O)NC(=O)CNC(=O)[C@H](CCC(=O)O)NC1=O [Peptide 62]	27
C[C@H](N)C(=O)N[C@H]1CSCCC(=O)N2CN3CN(C2)C(=O)CCSC[C@H](NC(=O)[C@H](CCCCN)NC(=O)[C@@H]2CCCN2C(=O)[C@H](Cc2ccccc2)NC(=O)[C@H](CO)NC1=O)C(=O)N1CCC[C@H]1C(=O)N[C@@H](Cc1c[nH]c2ccccc12)C(=O)N[C@@H](C(C)(C)C)C(=O)N[C@@H](CCC(=O)O)C(=O)NCC(=O)N[C@H](C(=O)N[C@@H](C)C(N)=O)CSCCC3=O [Peptide 67] (HELM PEPTIDE1{A.C.S.F.P.K.C.P.W.[CC(C)(C)[C@H](N[*:1])C(=O)[*:2]].E.G.C.A.[am]}|CHEM1{[O=C(CC[*:1])N1CN(C(=O)CC[*:2])CN(C(=O)CC[*:3])C1]}$PEPTIDE1,CHEM1,2:R3-1:R1|PEPTIDE1,CHEM1,7:R3-1:R2|PEPTIDE1,CHEM1,13:R3-1:R3$$$V2.0)	574
CC(C)[C@@H]1NC(=O)[C@H](Cc2c[nH]c3ccccc23)NC(=O)[C@H](C)NC(=O)[C@@H]2CSCCC(=O)N3CN(CN(C3)C(=O)CCSC[C@H](NC(=O)[C@H](C)N)C(=O)N[C@@H](CO)C(=O)N[C@@H](Cc3ccccc3)C(=O)N3CCC[C@H]3C(=O)N[C@@H](CCCCN)C(=O)N2)C(=O)CCSC[C@@H](C(=O)N[C@@H](C)C(N)=O)NC(=O)CNC(=O)[C@H](CCC(=O)O)NC1=O [Peptide 20]	1380

Same assay, conditions: hydrophobic extension of Trp6, relative to parent peptide

Compound	Improvement in binding affinity
CC(C)[C@@H]1NC(=O)[C@H](Cc2c[nH]c3cc(F)ccc23)NC(=O)[C@@H]2CCCN2C(=O)[C@@H]2CSCCC(=O)N3CN(CN(C3)C(=O)CCSC[C@H](NC(=O)[C@H](C)N)C(=O)N[C@@H](CO)C(=O)N[C@@H](Cc3ccccc3)C(=O)N3CCC[C@H]3C(=O)N[C@@H](CCCCN)C(=O)N2)C(=O)CCSC[C@@H](C(=O)N[C@@H](C)C(N)=O)NC(=O)CNC(=O)[C@H](CCC(=O)O)NC1=O [Peptide 66]	More than 10 fold
